Data on 9 molecules can be found in US20050277663A1, “3-Aryl-3-hydroxy-and 3-aryl-3-oxopropionic acid esters as fungicides” (priority 2004, published 2005).

Some results are limits rather than exact numbers.

Assay [1] has as its system Alternaria solani on tomato plants. As to the kind of experiment: Alternaria greenhouse study on tomato plants. As to conditions: for control of A. solani (in words): 75 ppm rate; for Average Lesion Size: 6 days after infection.
Experimental: Tomato plants were inoculated with a conidial suspension (8,000 conidia/ml) of A. solani and maintained in a dew chamber for 24 hours. The plants were subsequently moved to the greenhouse for disease development.
The test system of assay [2] is Erysiphe graminis on barley plants. Briefly: Erysiphe greenhouse study on barley plants. As to conditions: for Average Lesion Number: 5 days after infection.
Assay [3] concerns Botrytis cinerea. As to the kind of experiment: Microtiter plate fungicidal screening (agar, spore inoculation). As to conditions: fungal growth after 3-5 days at 20° C., C.V. class in parentheses, read-out: IC50 B. cinerea. The class given is cell-based.
Assay [4] deals with Phytophthora infestans. As to the kind of experiment: microbe, parasite or virus in culture. As to conditions: for IC50: Phytophthora infestans, read-out: IC50 P. infestans. It counts as cell-based.
In assay [5] the test system is Stagnospora nodorum. Briefly: Microtiter plate fungicidal screening (agar, spore inoculation). The class given is cell-based. Conditions: fungal growth after 3-5 days at 20° C., C.V. class in parentheses; for IC50: Parastagonospora nodorum, read-out: IC50 S. nodorum.
Assay [6] concerns U. maydis. The assay is described as above. The class given is cell-based, Ustilago maydis. Conditions: Mycosarcoma maydis; fungal growth after 3-5 days at 20° C.; C.V. class in parentheses.
Assay [7] relates to Septoria tritici. Described as above. The class given is cell-based. As to conditions: fungal growth after 3-5 days at 20° C., C.V. class in parentheses.

For the molecule `CO/C=C(/C(=O)OC)c1ccccc1Oc1cc(Oc2ccccc2C#N)ncn1` [Azoxystrobin, azoxystrobin], the “control of A. solani (in words)” value in assay [1] was “slightly less control”. Besides, the “Average Lesion Size” value in assay [1] (75 ppm) and in assay [1] (300 ppm) was “A (A = 0-10)” in each case. Also, the “control of A. solani” value in assay [1] (300 ppm rate) is given as about 100%.
In the case of `N#Cc1c(Cl)c(Cl)c(Cl)c(C#N)c1Cl` [Chlorothalonil, chlorothalonil], the “Average Lesion Size” value in assay [1] (1250 ppm) and in assay [1] (5000 ppm) was “A (A = 0-10)” in each case. Further, the “control of E. graminis (in words)” value in assay [2] (high rate) is “marginal level of control”. Besides, the “Average Lesion Number” value in assay [2] (inoculated data set, 1250 ppm) is reported as “B (B = 51-100)”; in assay [2] (inoculated data set, 5000 ppm), “D (D = +150)”; in assay [2] (uninoculated data set, 1250 ppm), “B (B = 11-20)”; in assay [2] (uninoculated data set, 5000 ppm), “C (C = 21-30)”.
Consider `O=C(OCc1cccc(C(F)(F)F)c1)C(CSc1nccs1)C(O)c1cccnc1` (stereo not drawn) [Compound 5, 3-(Trifluoromethyl)phenylmethyl β-hydroxy-α-(2-thiazolylthiomethyl)-3-pyridinepropanoate], for which the half-maximal inhibitory concentration (IC50) in assay [3] is over 25 µM; in assay [4], over 25 µM; in assay [5], under 5 µM; in assay [6] it was over 25 µM. In addition, in assay [7], the “IC50 S. tritici” value is given as “A (d)”.
As for `O=C(OCc1cccc(C(F)(F)F)c1)[C@H](c1ccccc1)[C@@H](O)c1cccnc1` [Compound 15, 3-(Trifluoromethyl)phenylmethyl syn-β-hydroxy-α-phenyl-3-pyridinepropanoate], the IC50 in assay [4] and in assay [6] was over 25 µM each time. Besides, in assay [5], the “IC50 S. nodorum” value was “A (d)”. The “IC50 S. tritici” value in assay [7] is “A (d)”.
Take `O=C(OCc1ccc(Cl)c(Cl)c1)C(CSc1nc2cccnc2s1)C(O)c1cccnc1` (stereo not drawn) [Compound 16, 3,4-Dichlorophenylmethyl β-hydroxy-α-{2-(thiazolo[5,4-b]pyridine)thiomethyl}-3-pyridinepropanoate]: the half-inhibitory concentration (IC50) in assay [4] and in assay [6] was over 25 µM each time. Moreover, the “IC50 S. nodorum” value in assay [5] is “A (b)”. The “IC50 S. tritici” value in assay [7] was “A (c)”.
As to `O=C(OCc1cccc(C(F)(F)F)c1)C(Cc1ccco1)C(O)c1cccnc1` (stereo not drawn) [Compound 20, 3-(Trifluoromethyl)phenylmethyl β-hydroxy-α-2-furylmethyl-3-pyridinepropanoate], the IC50 in assay [3] is over 25 µM; in assay [4] it was over 25 µM; in assay [6] it was over 25 µM; in assay [7] (Zymoseptoria tritici, read-out: IC50 S. tritici), under 5 µM. Also, in assay [5], the “IC50 S. nodorum” value is given as “A (b)”.
Consider `O=C(OCc1cccc(C(F)(F)F)c1)C(c1ccccc1Cl)C(O)c1cccnc1` (stereo not drawn) [Compound 21, 3-(Trifluoromethyl)phenylmethyl β-hydroxy-α-2-chlorophenyl-3-pyridinepropanoate], for which the “control of A. solani (in words)” value in assay [1] is listed as “no control”. The “Average Lesion Size” value in assay [1] (75 ppm) is “D (D = +30)”; in assay [1] (300 ppm), “C (C = 21-30)”. Besides, the “decrease in lesion counts” value in assay [1] (high rate (300 ppm), activity was not significant) is on record as “roughly 50%”. Further, the “activity against E. graminis (in words)” value in assay [2] (both rates (300 and 75 ppm), both uninoculated and inoculated tests) is reported as “excellent activity”. The “Average Lesion Number” value is recorded as “A (A = 0-50)” in assay [2] (inoculated data set, 75 ppm); “A (A = 0-50)” in assay [2] (inoculated data set, 300 ppm); “A (A = 0-10)” in assay [2] (uninoculated data set, 75 ppm); “A (A = 0-10)” in assay [2] (uninoculated data set, 300 ppm). For the same molecule, the IC50 in assay [3], in assay [4] and in assay [6] was over 25 µM in each case. In assay [5], the “IC50 S. nodorum” value is on record as “A (c)”. Also, in assay [7], the “IC50 S. tritici” value is given as “A (c)”.
`CC(C(=O)Oc1ccc(Cl)c(Cl)c1)C(O)c1cccnc1` (stereo not drawn) [Compound 29, 3,4-Dichlorophenyl β-hydroxy-α-methyl-3-pyridinepropanoate]: the IC50 in assay [3] is over 25 µM; in assay [5], 16 to 25 µM; in assay [6] it was 16 to 25 µM. For the same molecule, in assay [4] (fungal growth after 3-5 days at 20° C., C.V. class in parentheses), the “IC50 P. infestans” value was “D (d)”. The “IC50 S. tritici” value in assay [7] is “A (b)”.
As to `CCCC1COC(Cn2cncn2)(c2ccc(Cl)cc2Cl)O1` (centres unmarked) [Propiconazole, propiconazole], in assay [2] (high (75 ppm) rate), the “control of E. graminis” value is on record as about 100%. Further, the “Average Lesion Number” value is “A (A = 0-50)” in assay [2] (inoculated data set, 4.7 ppm); “A (A = 0-50)” in assay [2] (inoculated data set, 18.8 ppm); “A (A = 0-50)” in assay [2] (inoculated data set, 75 ppm); “A (A = 0-10)” in assay [2] (uninoculated data set, 5 ppm); “A (A = 0-10)” in assay [2] (uninoculated data set, 19 ppm); “A (A = 0-10)” in assay [2] (uninoculated data set, 75 ppm). Further, the “control of E. graminis (in words)” value in assay [2] (lower rates (19 and 5 ppm)) is reported as “excellent control”.

By IC50 is commonly meant the concentration that gives 50% inhibition.
